Data set [1] relates to S. aureus ATCC 29213, 1199b, 1199, K1712, 8325.4. The data set is described as follows: Supplemental EPI tests: potentiation of antibiotic MICs. It is filed as cell-based, Staphylococcus aureus. As for the experimental part:
(§1) The molecules of which the EPI effect was evaluated are: I.1 (24 μmol/l), I.6 (16 μmol/l) and I.14 (31 μmol/l).
(§2) The antibiotics with which these molecules were combined are: ciprofloxacin and norfloxacin; tetracycline; oxacillin; erythromycin and vancomycin.
(§3) The bacterial strains tested are S. aureusATCC 29213; S. aureus 1199b overexpressing NorA and also S. aureus 1199, the strain from which it is derived; S. aureus K1712 not expressing NorA and also S. aureus 8325.4 (the strain from which it is derived).
(§4) The methodology used is based on the MIC technique described previously.

In data set [2] the test system is S. aureus 1199b overexpressing NorA. Described as above. Type of data set: cell-based, Staphylococcus aureus. The following applies: for potentiating activity in the presence of tetracycline and of erythromycin: 1199b strain. As for the experimental part:
as §1, §2, §3, §4

For data set [3], the system named is S. aureus K1712 not expressing NorA. The data set is described as above. The following applies: strain not expressing NorA. Type of data set: cell-based, Staphylococcus aureus. As for the experimental part: as §1, §2, §3, §4
The subject of data set [4] is Fifty-six strains belonging to 19 genera. Put plainly: Spectrum of activity: potentiating effect of compound I.12 on ciprofloxacin (MIC method). Type of data set: cell-based. As for the experimental part: (§5) The antibiotic used is ciprofloxacin with the same dilution as in section B.1. The compound I.12 is also used under the same conditions as in section B.1.
(§6) Fifty-six strains belonging to 19 genera were used (TABLE 6).
(§7) Nine of these strains are ATCC strains and 47 are of clinical origins and come from the Centre de Biologie Est [Eastern Biological Center] in Bron. Eighteen staphylococcal strains are tested: 1 strain of S. epidermidis, 2 strains of S. aureus, 10 MRSA (methicillin-resistant S. aureus) and 5 VISA (vancomycin intermediate sensitivity S. aureus). Sixteen enterococcal strains are also tested, i.e. 9 E. faecium and 7 E. faecalis. The latter 2 species grouped together 2 vancomycin-sensitive strains (1 per species), and 14 resistant strains (VRE, respectively 8 E. faecium and 6 E. faecalis).
(§8) This potentiating effect is evaluated as previously. However, the growth of certain microorganisms (Streptococcus pneumoniae, S. agalactiae, S. pyogenes, Corynebacterium amycolatum and Listeria monocytogenes) in liquid medium requires defibrinated horse blood lysed in 50% of sterile osmosed water via a succession of 7 freezings (−20° C.)/thawing (ambient temperature). The 50% blood is then centrifuged at ambient temperature at 12 000 rpm for 20 min. The supernatant is introduced into sterile, additive-free MH II in an amount of 5% by volume.

For the next data set, the system named is VISA (strain V4). The data set is described as follows: Chessboard method, I.12 combined with ciprofloxacin (FIC). It is filed as cell-based, Staphylococcus aureus. To be noted: I.12 and ciprofloxacin; FIC≦0.5 = synergy.
Data set [5] concerns S. aureus ATCC 29213. The data set is described as follows: Time kill curve method, I.12/ciprofloxacin combination. Type of data set: cell-based, Staphylococcus aureus. The following applies: ciprofloxacin (0.5 mg/ml and 0.125 mg/m)/I.12 (31 μM); mean of two experiments. As for the experimental part:
The time kill curve is performed in 6-well plates. Each well contains 5 ml of MH II broth inoculated with bacteria in the exponential growth phase (final concentrations at 10^6 CFU/ml). The various bacterial growth conditions tested are: • Well 1: 0.5 mg/ml of ciprofloxacin +31 μM of I.12. • Well 2: 0.125 mg/ml of ciprofloxacin +31 μM of I.12. • Well 3: 0.5 mg/ml of ciprofloxacin. • Well 4: 0.125 mg/ml of ciprofloxacin. • Well 5: 31 μM of I.12. • Well 6: No molecule.
The cultures are incubated at 37° C. with shaking at 400 rpm. Samples are taken every hour for the first 6 hours, and at 22 hours. The live bacteria are counted by culturing on a dish after dilutions of the cultures.

In data set [6] the test system is Staphylococcus aureus (MSSA, MRSA, VISA strains). Put plainly: Spectrum of activity: I.12 + ciprofloxacin, S. aureus strains. Type of data set: cell-based. To be noted: for Number of sensitive strains / Percentage of sensitive strains: ciprofloxacin + I.12. As for the experimental part: as §5, §6, §7, §8
For data set [7], the system named is Enterococcus faecalis (VSE, VRE strains). Put plainly: Spectrum of activity: I.12 + ciprofloxacin, E. faecalis strains. Type of data set: cell-based. The following applies: for Number of sensitive strains / Percentage of sensitive strains: ciprofloxacin + I.12. As for the experimental part:
as §5, §6, §7, §8

The subject of data set [8] is Staphylococcus epidermidis. The data set is described as follows: Spectrum of activity: I.12 + ciprofloxacin, S. epidermidis. Type of data set: cell-based. As for the experimental part:
as §5, §6, §7, §8

The test system of data set [9] is S. aureus ATCC 29213. Put plainly: Chessboard method, I.12 combined with antibiotics (FIC). It is filed as cell-based, Staphylococcus aureus. The following applies: I.12 and ciprofloxacin; FIC≦0.5 = synergy. As for the experimental part: The antibiotics used are erythromycin, ciprofloxacin, vancomycin, tetracycline and oxacillin.
The sensitivity of S. aureus ATCC 29213 to the combination of the antibiotic molecules ciprofloxacin and the compound I.12 and the effect of each of the two molecules on the activity of the other are determined using the chessboard method. This method is carried out in a round-bottomed 96-well plate (12 columns by 8 rows). Various concentrations of ciprofloxacin and of compound I.12 are obtained by a dilution of their stock solutions in MH II broth. Fifty microliters of the dilution range of the compound I.12 are deposited in each well of columns 1 to 10, each row corresponding to a dilution of this compound. Fifty microliters of the dilution range of ciprofloxacin are deposited in the wells of columns 2 to 10, each column corresponding to a dilution. This same dilution range of ciprofloxacin is also prepared in column 11. Fifty microliters of MH II broth are deposited in the wells of columns 1 and 11. Finally, 100 μl of bacterial suspension at 10^6 CFU (Colony-Forming Units)/ml are introduced in each well of columns 1 to 10 (final concentration of bacteria: 5×10^5 CFU/ml).
The plate is read visually. […] The fractional inhibitory concentration (FIC) is calculated by adding the FIC of the compound I.12 (FICI.12) and the FIC of ciprofloxacin (FICcipro) according to the following formulae: […]

Data set [10] concerns S. aureus 1199B (strain overexpressing NorA). Put plainly: Chessboard method, I.12 combined with antibiotics. Type of data set: cell-based, Staphylococcus aureus.
The next data set has as its system MRSA (strain ST07 1012). Put plainly: Chessboard method, I.12 combined with ciprofloxacin (FIC). To be noted: I.12 and ciprofloxacin; FIC≦0.5 = synergy. Type of data set: cell-based, Staphylococcus aureus.
Data set [11] deals with Enterococcus faecium (VSE, VRE strains). Put plainly: Spectrum of activity: I.12 + ciprofloxacin, E. faecium strains. It is filed as cell-based. To be noted: for Number of sensitive strains / Percentage of sensitive strains: ciprofloxacin + I.12. As for the experimental part:
as §5, §6, §7, §8

Data set [12] has as its system S. aureus K 1712 (strain without NorA pump). Put plainly: Chessboard method, I.12 combined with antibiotics. It is filed as cell-based, Staphylococcus aureus. To be noted: each ATB.
In data set [13] the test system is S. aureus ATCC 29213. The data set is described as follows: Antibiotic activity of the compounds alone (MIC technique). Type of data set: cell-based, Staphylococcus aureus. The following applies: compound alone, 18-24 h at 37° C., MH II medium. As for the experimental part:
All the compounds according to the invention are solubilized in dimethylsufoxide (DMSO). For each compound, the highest concentration usable during the experiments is determined by taking into account the toxicity of the solvent (final concentration of DMSO in contact with the bacteria of less than 3%) and also the capacity of the compound to solubilize in Mueller Hinton II (MH II) media. This is because some compounds precipitate during dilutions of solutions based on DMSO in MH II media. The strain for screening the compounds is a strain of Staphylococcus aureus from the American Type Culture Collection or ATCC, called S. aureus ATCC 29213. The antibiotic activity of a molecule is evaluated using the MIC technique. The MIC of a molecule is determined in a 96-well microplate, in MH II liquid medium according to the protocol of the CASFM and of the CLSI. A dilution range of the molecule is prepared beforehand in MH II medium. In each well, 100 μl of a bacterial suspension of SI aureus ATCC 29213 (10^6 CFU/ml), 50 μl of the dilution range of the compound tested and 50 μl of MH II are mixed. After 18-24 h of incubation at 37° C., the molecules having shown an inhibition of bacterial growth are recorded as having an antibiotic activity. The lowest concentration of compound for which no bacterial growth is observed is the MIC (lowest concentration inhibiting the growth of the bacteria).

As for `COc1cc(OC)c2c(C)c(-c3cccc(Cl)c3)c(=O)[nH]c2c1` [compound I.1, 3-(3-chlorophenyl)-5,7-dimethoxy-4-methylquinolin-2(1H)-one], the “EPI effects of the compound in combination with antibiotics” value in data set [1] (I.1 at 24 μmol/l) was “minor”.
For `COc1cc(OC)c2c(C)c(-c3c[nH]c4ccccc34)c(=O)[nH]c2c1` [compound I.6, 3-(1H-indol-3-yl)-5,7-dimethoxy-4-methylquinolin-2(1H)-one], the “potentiating activity in the presence of tetracycline and of erythromycin” value in data set [2] is listed as “does not exist”. Also, in data set [2] (norfloxacin or ciprofloxacin, strain overexpressing NorA), the “potentiating activity combined with one of the two fluoroquinolones” value is given as “particularly notable”. In data set [1] (tetracycline, oxacillin, erythromycin, vancomycin), the “potentiating activity coupled to non-fluoroquinolone antibiotics” value was “not very effective”. Moreover, the “potentiating activity of the combinations” value in data set [3] was “zero”.
As to `COc1cc(O)c2c(C)c(-c3ccccc3)c(=O)[nH]c2c1` [compound I.12, 5-hydroxy-7-methoxy-4-methyl-3-phenylquinolin-2(1H)-one], the “number of strains more sensitive to ciprofloxacin when the compound is combined” value in data set [4] (among the 56 bacterial strains tested) is on record as 28. Besides, the “factor by which the ciprofloxacin MICs are divided in the presence of the compound” value in [4] (each of the 28 sensitive strains, except one) was 16. Further, the “factor by which the ciprofloxacin MIC is divided in the presence of the compound” value in [4] (the one exception among the 28 sensitive strains) was at least 4; in data set [11] (two E. faecium VRE strains not listed in the 28, weakly sensitive), at least 2. The “FIC (fractional inhibitory concentration)” value with VISA (strain V4), in the data set on S. aureus ATCC 29213 [9] and in the data set with MRSA (strain ST07 1012) was at most 0.5 throughout. For the same molecule, in the data set on S. aureus ATCC 29213 [5], the “reduction of CFU/ml of the combination versus the most active molecule alone (synergistic effect)” value was at least 2 log10. Also, the “Number of sensitive strains” value is listed as 10 in data set [6] (MRSA, 10 strains tested); 2 in data set [6] (MSSA, 2 strains tested); 5 in data set [6] (VISA, 5 strains tested); 4 in data set [7] (E. faecalis VRE, 6 tested); 1 in data set [7] (E. faecalis VSE, 1 tested); 1 in data set [8] (S. epidermidis sensitive strain, 1 tested, ciprofloxacin + I.12). The “Number of sensitive strains” value in data set [11] (E. faecium VRE, 8 tested) came out at 5; in [11] (E. faecium VSE, 1 tested), 0. Also, the “Percentage of sensitive strains” value in data set [6] (MRSA) came out at 100%; in data set [6] (MSSA) it was 100%; in data set [6] (VISA), 100%; in [7] (E. faecalis VRE), 67%; in [7] (E. faecalis VSE), 100%; in data set [8] (S. epidermidis sensitive strain, ciprofloxacin + I.12) it was 100%. The “Percentage of sensitive strains” value in data set [11] (E. faecium VRE) was 62.5%; in data set [11] (E. faecium VSE), 0. The “sensitive strains / strains tested, combination with ciprofloxacin” value in [6] (S. aureus sensitive to conventional antibiotics) is 2/2; in [6] (S. aureus with reduced sensitivity to vancomycin (VISA)), 5/5; in data set [6] (methicillin-resistant S. aureus (MRSA)), 10/10; in data set [7] (E. faecalis (4 are VREs)) it was 5/7; in [8] (S. epidermidis) it was 1/1; in data set [11] (E. faecium (the 5 being VREs)), 5/9. The entries for the “interaction with antibiotics (chessboard)” value in data set [10] and in data set [12] were “highly synergistic combination” and “absence of interaction”, respectively.
For the molecule `Cc1c(-c2ccccc2)c(=O)[nH]c2cc(O)cc(O)c12` [compound I.13, 5,7-dihydroxy-4-methyl-3-phenylquinolin-2(1H)-one], the “antibiotic activity alone, concentration (MIC)” value in the data set with S. aureus ATCC 29213 [13] came out at 155 µM.
The term melting point denotes the temperature, or range, at which the solid turns liquid. Regarding `COc1cc(O)c2c(C)c(Cc3ccccc3)c(=O)[nH]c2c1` [compound I.14, 3-benzyl-5-hydroxy-7-methoxy-4-methylquinolin-2(1H)-one], the melting point was > 278 °C (dec.). The “potentiating activity in the presence of tetracycline and of erythromycin” value in [2] was “weak activity”. For the same molecule, the “improvement in the MICs (fold) in the presence of norfloxacin and of ciprofloxacin” value in data set [1] (I.1 24 μmol/l, I.6 16 μmol/l, I.14 31 μmol/l) is “results are identical”.
Turning to `COc1cc(O)c2c3c(c(=O)[nH]c2c1)CCC3` [compound I.15, 2,3-dihydro-9-hydroxy-7-methoxy-1H-cyclopenta[c]quinolin-4(5H)-one], the melting point lay in the range of 189 to 190 °C.

The record behind these values is patent US20140038883A1, “NOVEL AZACOUMARIN DERIVATIVES HAVING MDR PUMP INHIBITING ACTIVITY” (UNIVERSITE CLAUDE BERNARD LYON 1, priority 2011, published 2014).
